The text below walks through data of US12643892B2, “Pyridazinone compounds for the treatment of neuromuscular diseases” (Edgewise Therapeutics, Inc., priority 2020, dated 2026).

This experiment deals with Skeletal Myofibril ATPase (Rabbit Psoas myofibrils). Put plainly: Skeletal Myofibril ATPase Assay. It counts as biochemical. The settings on record: PK/LDH-coupled NADH absorbance at 340 nm. How it is done:
Overview: Myosin ATPase activity was assessed by using a coupled reaction system, in which ADP generated by the myosin ATPase function was coupled to the disappearance of NADH through the pyruvate kinase/lactate dehydrogenase (PK-LDH) system. Myosin ATPase activity produces ADP, which was used as a substrate for PK to produce pyruvate and regenerate ATP. The pyruvate was then used as a substrate by LDH to oxidize NADH to NAD+. The rate of the reaction was monitored through the time-dependent disappearance of NADH using absorbance at 340 nm. Inhibition of ATPase activity by the assayed compounds was indicated by a reduced rate of NADH loss, relative to vehicle-treated controls, over the experimental time window. To assess the selectivity of the assayed compounds for skeletal myofibrils, the compounds were counter-screened in cardiac myofibrils.
Materials: The following stock solutions and reagents were used in the Skeletal Myofibril ATPase Assay:
Stock Solutions of pCa buffer. Combine PIPES, CaCl2, and EGTA solutions with 70 mL of water. Adjust pH to 7.0 and bring final volume to 100 mL.
Buffer A & Buffer B. Buffers were stored on ice until use.
Skeletal Myofibril ATPase Assay Procedure: BSA, ATP, NADH, PEP, and DTT solutions were thawed at room temperature, then transferred to ice. Pellet-frozen myofibrils (approximately twice the required volume) were transferred into a sufficiently large tube and capped. Myofibrils were thawed by rolling in a water bath for approximately 15 min at room temperature and cooled on ice. Buffers A and B were prepared by adjusting volumes as necessary for required number of wells and stored on ice. 0.5 μL of the compounds to be assayed were added into wells of a 384-well plate. Buffers A and B were mixed by inversion immediately prior to use, then 25 μL of each was dispensed using a Multidrop dispenser (Buffer A first, then Buffer B). The absorbance within the wells was measured at 340 nm, using a kinetic protocol in which the wells are read every 1.5-2 min for 1 h. The reaction rate was qualitatively assessed by subtracting the minimum absorbance value from the maximum value for each well, using either the SoftMax Pro plate reader software or a spreadsheet program such as Excel. Using GraphPad Prism 8.0, the data was normalized, with 100% activity defined as the absorbance change in the 1% DMSO vehicle wells and 0% assigned to no change in absorbance over the course of the experiment. The normalized data were fit to a variable-slope four-parameter logistic model, constraining the bottom to be 0 or greater. Compounds of Table 1 to 3 were tested and results of the assay appear in Table 4 herein. A=IC50 is less than or equal to 10 μM; B=IC50 is greater than 10 μM and less than 100 μM; C=IC50 is greater than 100 μM.
On to `O=c1ccc(-c2nc(-c3cncc(F)c3)no2)cn1Cc1cccnc1` [Compound 108, 5-(3-(5-fluoropyridin-3-yl)-1,2,4-oxadiazol-5-yl)-1-(pyridin-3-ylmethyl)pyridin-2(1H)-one], for which the IC50 was 10 to 100 µM. Then `O=c1ccc(-c2nc(-c3ccccc3)no2)cn1Cc1cccnc1` [Compound 107, 5-(3-phenyl-1,2,4-oxadiazol-5-yl)-1-(pyridin-3-ylmethyl)pyridin-2(1H)-one], with 10 to 100 µM; and `O=c1ccc(-c2nc(-c3cncc(Cl)c3)no2)nn1Cc1cncc(F)c1` [Compound 65, 6-(3-(5-chloropyridin-3-yl)-1,2,4-oxadiazol-5-yl)-2-((5-fluoropyridin-3-yl)methyl)pyridazin-3(2H)-one], with ≤ 10 µM; and `Cc1cccc(-c2noc(-c3ccc(=O)n(Cc4ncc(C)s4)c3)n2)c1` [Compound 92, 1-((5-methylthiazol-2-yl)methyl)-5-(3-(m-tolyl)-1,2,4-oxadiazol-5-yl)pyridin-2(1H)-one], with ≤ 10 µM. `CCCCn1nc(-c2nc(-c3ccc(F)cc3)no2)ccc1=O` [Compound 76, 2-butyl-6-(3-(4-fluorophenyl)-1,2,4-oxadiazol-5-yl)pyridazin-3(2H)-one]: the IC50 was ≤ 10 µM.

Take `CCNC(=O)Cn1nc(-c2ncc(-c3cccc(Cl)c3)o2)ccc1=O` [Compound 27, 2-(3-(5-(3-chlorophenyl)oxazol-2-yl)-6-oxopyridazin-1(6H)-yl)-N-ethylacetamide]: the IC50 is ≤ 10 µM.

Turning to `CCNC(=O)Cn1nc(-c2nc(-c3cccc(Cl)c3)co2)ccc1=O` [Compound 30, 2-(3-(4-(3-chlorophenyl)oxazol-2-yl)-6-oxopyridazin-1(6H)-yl)-N-ethylacetamide], the half-inhibitory concentration (IC50) was ≤ 10 µM.

For the compound `O=c1ccc(-c2nc(-c3ccncc3)no2)cn1Cc1ccccc1C(F)(F)F` [Compound 120, 5-(3-(pyridin-4-yl)-1,2,4-oxadiazol-5-yl)-1-(2-(trifluoromethyl)benzyl)pyridin-2(1H)-one], the IC50 is > 120 µM. The figure for `O=C(Cn1nc(-c2nc(-c3cccc(Cl)c3)no2)ccc1=O)NC1CCC1` [Compound 5, 2-(3-(3-(3-chlorophenyl)-1,2,4-oxadiazol-5-yl)-6-oxopyridazin-1(6H)-yl)-N-cyclobutylacetamide] is ≤ 10 µM. As for `CCNC(=O)Cn1nc(-c2nnc(C34CC(C3)C4)s2)ccc1=O` [Compound 32, 2-(3-(5-(bicyclo[1.1.1]pentan-1-yl)-1,3,4-thiadiazol-2-yl)-6-oxopyridazin-1(6H)-yl)-N-ethylacetamide], the IC50 was ≤ 10 µM.

Turning to `Cc1noc(-c2ccc(=O)n(Cc3ccccc3F)n2)n1` [Compound 70, 2-(2-fluorobenzyl)-6-(3-methyl-1,2,4-oxadiazol-5-yl)pyridazin-3(2H)-one], the IC50 fell in the range of 10 to 100 µM. On to `CCNC(=O)Cn1nc(-c2nc(-c3cccc(Cl)c3)no2)ccc1=O` [Compound 14, 2-(3-(3-(3-chlorophenyl)-1,2,4-oxadiazol-5-yl)-6-oxopyridazin-1(6H)-yl)-N-ethylacetamide], for which the 50% inhibitory concentration (IC50) is ≤ 10 µM. Then `O=c1ccc(-c2nc(-c3cccc(F)c3)no2)cn1Cc1cncnc1` [Compound 106, 5-(3-(3-fluorophenyl)-1,2,4-oxadiazol-5-yl)-1-(pyrimidin-5-ylmethyl)pyridin-2(1H)-one], with ≤ 10 µM; and `Cc1ccc(-c2ccc(=O)n(CC(=O)NC3CCCCC3)n2)s1` [Compound 44, N-cyclohexyl-2-(3-(5-methylthiophen-2-yl)-6-oxopyridazin-1(6H)-yl)acetamide], with > 100 µM.

As to `O=c1ccc(-c2nnc(-c3cccc(Cl)c3)o2)nn1Cc1ccccc1` [Compound 73, 2-benzyl-6-(5-(3-chlorophenyl)-1,3,4-oxadiazol-2-yl)pyridazin-3(2H)-one], the IC50 was ≤ 10 µM. The figure for `Cc1ccc(-c2ccc(=O)n(CCOc3cccc(C#N)c3)n2)s1` [Compound 61, 3-(2-(3-(5-methylthiophen-2-yl)-6-oxopyridazin-1(6H)-yl)ethoxy)benzonitrile] is > 100 µM; for `O=c1ccc(-c2nc(-c3ccc(F)cc3)no2)cn1Cc1cccnc1` [Compound 104, 5-(3-(4-fluorophenyl)-1,2,4-oxadiazol-5-yl)-1-(pyridin-3-ylmethyl)pyridin-2(1H)-one] it is ≤ 10 µM; for `Cc1cccc(-c2noc(-c3ccc(=O)n(Cc4nnc(C)o4)c3)n2)c1` [Compound 100, 1-((5-methyl-1,3,4-oxadiazol-2-yl)methyl)-5-(3-(m-tolyl)-1,2,4-oxadiazol-5-yl)pyridin-2(1H)-one] it is ≤ 10 µM. Then `O=c1ccc(-c2nc(-c3cccc(Cl)c3)no2)nn1Cc1cncc(F)c1` [Compound 64, 6-(3-(3-chlorophenyl)-1,2,4-oxadiazol-5-yl)-2-((5-fluoropyridin-3-yl)methyl)pyridazin-3(2H)-one], with ≤ 10 µM; and `O=C(Cn1nc(-c2nnc(-c3cncc(Cl)c3)s2)ccc1=O)NC1CCC1` [Compound 20, 2-(3-(5-(5-chloropyridin-3-yl)-1,3,4-thiadiazol-2-yl)-6-oxopyridazin-1(6H)-yl)-N-cyclobutylacetamide], with ≤ 10 µM. The figure for `Cn1cnc(-c2ccc(=O)n(CC(=O)NCc3ccccc3Cl)n2)c1` [Compound 55, N-(2-chlorobenzyl)-2-(3-(1-methyl-1H-imidazol-4-yl)-6-oxopyridazin-1(6H)-yl)acetamide] is > 100 µM; for `Cn1ccc2c(NC(=O)Cn3nc(-c4cccs4)ccc3=O)cccc21` [Compound 83, N-(1-methyl-1H-indol-4-yl)-2-(6-oxo-3-(thiophen-2-yl)pyridazin-1(6H)-yl)acetamide] it is ≤ 10 µM. As for `CCNC(=O)Cn1nc(-c2nc(-c3cccc(OC(F)(F)F)c3)no2)ccc1=O` [Compound 6, N-ethyl-2-(6-oxo-3-(3-(3-(trifluoromethoxy)phenyl)-1,2,4-oxadiazol-5-yl)pyridazm-1(6H)-yl)acetamide], the 50% inhibitory concentration (IC50) is ≤ 10 µM. Take `O=c1ccc(-c2nc(-c3ccc(F)c(F)c3)no2)cn1Cc1cccnc1` [Compound 97, 5-(3-(3,4-difluorophenyl)-1,2,4-oxadiazol-5-yl)-1-(pyridin-3-ylmethyl)pyridin-2(1H)-one]: the IC50 was ≤ 10 µM.

For `CCNC(=O)Cn1nc(-c2noc(-c3cccc(Cl)c3)n2)ccc1=O` [Compound 31, 2-(3-(5-(3-chlorophenyl)-1,2,4-oxadiazol-3-yl)-6-oxopyridazin-1(6H)-yl)-N-ethylacetamide], the IC50 was ≤ 10 µM.

With `Cc1cnc(-c2ccc(=O)n(CC(=O)NCc3ccccc3Cl)n2)s1` [Compound 26, N-(2-chlorobenzyl)-2-(3-(5-methylthiazol-2-yl)-6-oxopyridazin-1(6H)-yl)acetamide], the IC50 is ≤ 10 µM. Regarding `O=c1ccc(-c2nc(-c3cccnc3)no2)nn1Cc1ccccc1F` [Compound 68, 2-(2-fluorobenzyl)-6-(3-(pyridin-3-yl)-1,2,4-oxadiazol-5-yl)pyridazin-3(2H)-one], the IC50 was 10 to 100 µM. In the case of `CCNC(=O)Cn1nc(-c2nc(-c3cccc(OC(F)F)c3)no2)ccc1=O` [Compound 7, 2-(3-(3-(3-(difluoromethoxy)phenyl)-1,2,4-oxadiazol-5-yl)-6-oxopyridazin-1(6H)-yl)-N-ethylacetamide], the IC50 was ≤ 10 µM. The figure for `Cc1cc(Cn2nc(-c3nc(-c4cccc(Cl)c4)no3)ccc2=O)on1` [Compound 63, 6-(3-(3-chlorophenyl)-1,2,4-oxadiazol-5-yl)-2-((3-methylisoxazol-5-yl)methyl)pyridazin-3(2H)-one] is ≤ 10 µM; for `O=c1ccc(-c2nc(-c3ccsc3)no2)cn1Cc1ccccc1C(F)(F)F` [Compound 115, 5-(3-(thiophen-3-yl)-1,2,4-oxadiazol-5-yl)-1-(2-(trifluoromethyl)benzyl)pyridin-2(1H)-one] it is > 120 µM. Then `O=C(Cn1nc(-c2cccs2)ccc1=O)Nc1ccc2c(c1)OCO2` [Compound 47, N-(benzo[d][1,3]dioxol-5-yl)-2-(6-oxo-3-(thiophen-2-yl)pyridazin-1(6H)-yl)acetamide], with > 100 µM; and `O=c1ccc(-c2nc(-c3cccc(Cl)c3)no2)cn1Cc1cccnc1` [Compound 91, 5-(3-(3-chlorophenyl)-1,2,4-oxadiazol-5-yl)-1-(pyridin-3-ylmethyl)pyndin-2(1H)-one], with ≤ 10 µM; and `Cc1ccc(-c2ccc(=O)n(CC(=O)NC3CCCC3)n2)s1` [Compound 39, N-cyclopentyl-2-(3-(5-methylthiophen-2-yl)-6-oxopyridazin-1(6H)-yl)acetamide], with 10 to 100 µM.
